Results taken from patent US20110190199A1, “Combination Therapy for Tuberculosis” (priority 2008, published 2011).
“And” between values parts separate entries of the source, which are not always exact repeats. Equal entries are not always repeated. Marks after values point to notes of the source that are not given here.

Assays:
M. tuberculosis H37Rv = assay: Example 9: compound of formula I added to first and second line anti-tuberculosis drugs (survival, lung CFU after 4 weeks); type: in vivo, mice; conditions: for Mean lung log10 CFU count (±) S.D. after 4 weeks of treatment with: Regimen alone / Mean lung log10 CFU count (±) S.D. after 4 weeks of treatment with: Regimen + U 25 mg/kg / Mean lung log10 CFU count (±) S.D. after 4 weeks of treatment with: Regimen + U 100 mg/kg: D0 8.36 ± 0.10; for Mean lung log10 CFU count (±) S.D. after 4 weeks of treatment with: Regimen alone: H 10, R 10, Eb 100, M 100 mg, Et 50, A 150 sc, C 20 mg/kg; for Mean lung log10 CFU count (±) S.D. after 4 weeks of treatment with: Regimen + U 25 mg/kg: labelled drug PLUS U 25 mg/kg; for Mean lung log10 CFU count (±) S.D. after 4 weeks of treatment with: Regimen + U 100 mg/kg: labelled drug PLUS U 100 mg/kg, lower limit of detection 3.40; for Time to 50% mortality: no treatment 21 days
[1] = tested on: Mycobacterium tuberculosis H37Rv; assay: Example 8B: eight week dose ranging study (second phase after 4 weeks RHZU25); type: in vivo, mice; parameters: Lung CFU / CFU-U only: unit not given here; conditions: 8 weeks: 4 weeks RHZU25 (4.19 ± 0.26) then 4 weeks of the labelled treatment; R 10, H 25 mg/kg; untreated 5.49 ± 0.23
Experimental: Eighty of the mice from Group 4 (in Example 8A) that had been receiving 25 mg/kg of the compound of formula I (U) along with rifampin(R), isoniazid(H), and pyrazinamide(Z) were evaluated in the second phase of the study. They were assigned to one of the groups described below in Table 6 and the study was continued for an additional 4 weeks (i.e. 8 week results).
As described above, 5 animals served as the control and no further drugs were given. Five were given the combination of rifampin(R) and isoniazid (H), five given isoniazid (H) or rifampin(R) alone. […] Six of these groups were also dosed with rifampin (R). The rifampin and isoniazid was dosed in the same manner and in the same amount as in Example 8A.
At the conclusion of the eight (8) week experiment, all of the animals were sacrificed and CFU lung counts were obtained.

[2] = tested on: Mycobacterium tuberculosis H37Rv; assay: Example 6: in vivo activity of the combination (lung CFU after 4 and 8 weeks); parameters: species or system mice; conditions: for Lung log10 CFU counts (±SD) after treatment with the indicated regimen plus the compound of formula (I) 100 mg/kg/day, Day 28 / Lung log10 CFU counts (±SD) after treatment with the indicated regimen plus the compound of formula (I) 100 mg/kg/day, Day 56: labelled regimen PLUS compound of formula (I) 100 mg/kg/day, INH 25, RIF 10, PZA 150, MXF 100 mg/kg; for Lung log10 CFU counts (±SD) after treatment with the indicated regimen plus the compound of formula (I) 100 mg/kg/day, Day 28 / Lung log10 CFU counts (±SD) after treatment with the indicated regimen plus the compound of formula (I) 100 mg/kg/day, Day 56 / Lung log10 CFU counts (±SD) after treatment with the indicated regimen, Day 56 / Lung log10 CFU counts (±SD) after treatment with the indicated regimen, Day 28: Day 0 7.37 ± 0.12; for reduction in lung CFU counts from baseline over the first 28 days: monotherapy, compound of formula (I) 100, INH 25, RIF 10 mg/kg; for Lung log10 CFU counts (±SD) after treatment with the indicated regimen, Day 56 / Lung log10 CFU counts (±SD) after treatment with the indicated regimen, Day 28: regimen as labelled, INH 25, RIF 10, PZA 150, MXF 100, compound of formula (I) 100 mg/kg; for Lung log10 CFU counts (±SD) after treatment with the indicated regimen, Day 28: 100 mg/kg
[3] = tested on: Mycobacterium tuberculosis H37Rv; type: in vivo, mice; conditions: 25 mg/kg
[4] = tested on: Mycobacterium tuberculosis H37Rv; assay: Example 8C: additional dose ranging study (4 and 8 weeks); type: in vivo, mice; conditions: lung; 4 weeks RHZU100 then 4 weeks of the labelled control regimen without U; untreated 4.91 ± 0.17
Experimental: The protocol described above in Example 8A and 8B was carried out on an alternative occasion. The only substantive changes were the number of animals per group and the initial incubation period.
Testing continued for an additional 4 weeks with 60 of the mice from Test Group 2 immediately above. The mice either received U alone, at varying doses, or the combination of U and R. The following results were obtained.

Compound	Mean lung log10 CFU count (±) S.D. after 4 weeks of treatment with: Regimen alone (M. tuberculosis H37Rv) [log10 CFU]	Mean lung log10 CFU count (±) S.D. after 4 weeks of treatment with: Regimen + U 25 mg/kg (M. tuberculosis H37Rv) [log10 CFU]	Mean lung log10 CFU count (±) S.D. after 4 weeks of treatment with: Regimen + U 100 mg/kg (M. tuberculosis H37Rv)	Time to 50% mortality (M. tuberculosis H37Rv) [days]	other results
COc1c(N2C[C@@H]3CCCN[C@@H]3C2)c(F)cc2c(=O)c(C(=O)O)cn(C3CC3)c12 [M, moxifloxacin]	6.49 ± 0.12	7.08 ± 0.10	5.33 ± 0.30 log10 CFU	–	–
N[C@@H]1CON=C1O [Cs, cycloserine]	–	7.19 ± 0.21	5.66 ± 0.11 log10 CFU	22	–
NCC[C@H](O)C(=O)N[C@@H]1C[C@H](N)[C@@H](O[C@H]2O[C@H](CN)[C@@H](O)[C@H](O)[C@H]2O)[C@H](O)[C@H]1O[C@H]1O[C@H](CO)[C@@H](O)[C@H](N)[C@H]1O [A, amikacin]	7.24 ± 0.14	6.78 ± 0.16	5.18 ± 0.17 log10 CFU	–	–
Nc1ccc(C(=O)O)c(O)c1 [Ps, para-aminosalicyclic acid]	–	6.87 ± 0.21	5.39 ± 0.32 log10 CFU	31	–
capreomycin	–	6.81 ± 0.13	5.35 ± 0.17 log10 CFU	22	–
CCc1cc(C(N)=S)ccn1 [Et, ethionamide]	7.19 ± 0.04	7.18 ± 0.18	5.46 ± 0.15 log10 CFU	–	–
CC[C@@H](CO)NCCN[C@@H](CC)CO [Eb, ethambutol]	7.41 ± 0.57	6.86 ± 0.16	5.50 ± 0.13 log10 CFU	30	–
NC(=O)c1cnccn1 [Z, pyrazinamide]	–	4.73 ± 0.38	≦3.59*** log10 CFU	21	–
NNC(=O)c1ccncc1 [INH, isoniazid]	7.01 ± 0.14	6.22 ± 0.06	5.79 ± 0.33 log10 CFU	–	Lung CFU [1]: 4.46 ± 0.37; Lung log10 CFU counts (±SD) after treatment with the indicated regimen plus the compound of formula (I) 100 mg/kg/day, Day 28 [2]: 4.33 ± 0.29 log10 CFU; Lung log10 CFU counts (±SD) after treatment with the indicated regimen plus the compound of formula (I) 100 mg/kg/day, Day 56 [2]: 2.87 ± 0.23 log10 CFU; reduction in lung CFU counts from baseline over the first 28 days [2]: 1.58 log10; Lung log10 CFU counts (±SD) after treatment with the indicated regimen, Day 56 [2]: 4.53 ± 0.24 log10 CFU; Lung log10 CFU counts (±SD) after treatment with the indicated regimen, Day 28 [2]: 5.79 log10 CFU and 5.79 ± 0.14 log10 CFU; log kill (reduction in mean lung CFU count compared to the baseline value) ([3]; 28 days): 1.87 log10; mean spleen weight ([3]; after 28 days of treatment, pre-treatment 105±11 mg, untreated 237±16 mg): 100 ± 1 mg
CO[C@H]1/C=C/O[C@@]2(C)Oc3c(C)c(O)c4c(O)c(c(/C=N/N5CCN(C)CC5)c(O)c4c3C2=O)NC(=O)/C(C)=C\C=C\[C@H](C)[C@H](O)[C@@H](C)[C@@H](O)[C@@H](C)[C@H](OC(C)=O)[C@@H]1C [RIF, rifampin]	6.23 ± 0.11	5.91 ± 0.21	5.02 ± 0.10 log10 CFU	–	Lung CFU [1]: 4.18 ± 0.55; CFU Count 8 weeks [4]: 4.16 ± 0.65; Lung log10 CFU counts (±SD) after treatment with the indicated regimen plus the compound of formula (I) 100 mg/kg/day, Day 28 [2]: 3.73 ± 0.19 log10 CFU; Lung log10 CFU counts (±SD) after treatment with the indicated regimen plus the compound of formula (I) 100 mg/kg/day, Day 56 [2]: 1.29 ± 0.22 log10 CFU; reduction in lung CFU counts from baseline over the first 28 days [2]: 1.63 log10; Lung log10 CFU counts (±SD) after treatment with the indicated regimen, Day 56 [2]: 4.65 ± 0.24 log10 CFU; Lung log10 CFU counts (±SD) after treatment with the indicated regimen, Day 28 [2]: 5.74 log10 CFU and 5.74 ± 0.17 log10 CFU
CC(C)/N=c1\cc2n(-c3ccc(Cl)cc3)c3ccccc3nc-2cc1Nc1ccc(Cl)cc1 [C, clofazimine]	5.92 ± 0.24	6.25 ± 0.20	4.91 ± 0.14 log10 CFU	–	–
